Experimental data taken from patent EP1147083B1, “ARYLPIPERAZINYL-CYCLOHEXYL INDOLE DERIVATIVES FOR THE TREATMENT OF DEPRESSION” (Wyeth, priority 1999, dated 2000).
Read-outs that look alike come from different tables or passages of the source.

Tests used:
[1] = biological target: T1, human 5-HT1A receptor subtype (Homo sapiens, UniProt P08908); assay: 5-HT1A receptor binding assay with [3H]8-OH-DPAT on CHO cell membranes; details: [3H]8-OH-DPAT 1.5 nM
T1 construct: expressed in transfected cells
T1 sequence (P08908 1-422): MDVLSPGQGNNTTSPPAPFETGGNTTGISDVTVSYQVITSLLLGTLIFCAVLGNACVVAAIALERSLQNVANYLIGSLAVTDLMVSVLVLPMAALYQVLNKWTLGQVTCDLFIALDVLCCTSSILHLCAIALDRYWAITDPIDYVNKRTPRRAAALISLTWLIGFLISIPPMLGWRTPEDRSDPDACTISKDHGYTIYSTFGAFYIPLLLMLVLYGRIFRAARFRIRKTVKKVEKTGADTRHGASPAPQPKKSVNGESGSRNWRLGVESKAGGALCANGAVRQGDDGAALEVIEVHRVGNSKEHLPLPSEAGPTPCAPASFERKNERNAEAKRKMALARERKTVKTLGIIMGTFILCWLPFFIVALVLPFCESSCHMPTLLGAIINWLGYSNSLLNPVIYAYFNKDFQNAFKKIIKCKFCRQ
Protocol: (§1) The PCR cloning of the human 5-HT1A receptor subtype from a human genomic library has been described previously Chanda et al., Mol. Pharmacol., 43:516 (1993). A stable Chinese hamster ovary cell line expressing the human 5-HT1A receptor subtype (5-HT1A.CHO cells) was employed throughout this study. Cells were maintained in DMEM supplemented with 10% foetal calf serum, non-essential amino acids and penicillin/ streptomycin.
Cells were grown to 95-100% confluency as a monolayer before membranes were harvested for binding studies. Cells were gently scraped from the culture plates, transferred to centrifuge tubes, and washed twice by centrifugation (2000 rpm for 10 min., 4°C) in buffer (50 mM Tris; pH 7.5). The resulting pellets were aliquoted and placed at -80°C. On the day of assay, the cells were thawed on ice, and resuspended in buffer. Studies were conducted using [^3H]8-OH-DPAT as the radioligand. The binding assay was performed in 96 well microtiter plates in a final total volume of 250 µL of buffer. Competition experiments were performed by using 7 concentrations of unlabelled drug and a final ligand concentration of 1.5 nM. Nonspecific binding was determined in the presence of 10 µM 5HT. Saturation analysis was conducted by using [^3H]8-OH-DPAT at concentrations ranging from 0.3-30 nM. Following a 30 minute incubation at room temperature, the reaction was terminated by the addition of ice cold buffer and rapid filtration using a M-96 Brandel Cell Harvester (Gaithersburg, MD) through a GF/B filter presoaked for 30 minutes in 0.5% polyethyleneimine.

[2] = biological target: T2, serotonin transporter (Rattus norvegicus, UniProt P31652); assay: Serotonin transporter affinity, 3H-paroxetine binding to frontal cortical membranes; parameters: species or system male Sprague-Dawley rats
T2 construct: from tissue; host or cells: frontal cortex of male Sprague-Dawley rats
Protocol: Briefly, frontal cortical membranes prepared from male Sprague-Dawley rats were incubated with ^3H-paroxetine (0.1 nM) for 60 minutes at 25°C. […] All reactions are terminated by the addition of ice cold Tris buffer followed by rapid filtration using a Tom Tech filtration device to separate bound from free ^3H-paroxetine.

[3] = biological target: T3, 5-HT1A cloned receptor membrane fragments (Homo sapiens, UniProt P08908); assay: [35S]-GTPγS binding assay; type: biochemical; details: value in brackets, or a lone % in the cell; maximum agonist response defined by excess 8-OH-DPAT; read-out: GTPγS (%EMax)
T3 construct: expressed in transfected cells
T3 sequence (P08908 1-422): T1 sequence (P08908 1-422)
Protocol: The [^35S]-GTPγS binding assay was similar to that used by Lazareno and Birdsall, Br. J. Pharmacol. 109:1120 (1993). Briefly, 5-HT1A cloned receptor membrane fragments (as used for 5-HT1A receptor binding assays) were stored at -70°C until needed. When needed, membranes were rapidly thawed, centrifuged at 40,000 x g for 10 minutes and resuspended at 4 °C for 10 minutes in assay buffer (25 mM HEPES, 3 mM MgCl2, 100 mM NaCl, 1 mM EDTA, 10 uM GDP, […], pH 8.0). These membranes were then incubated for 30 minutes at 30°C with [^35S]GTPgS (1 nM) in the presence of vehicle, test compound (one to eight concentrations), or excess 8-OH-DPAT to define maximum agonist response. All reactions are terminated by the addition of ice cold Tris buffer followed by rapid filtration using a Tom Tech® filtration device to separate bound from free [^35S]GTPgS. Agonists produce an increase in the amount of [^35S]GTPgS bound whereas antagonists produce no increase in binding. Bound radioactivity was counted and analyzed as above.

[4] = biological target: T4, human 5-HT1A receptor subtype (5-HT1A.CHO cells) (Homo sapiens, UniProt P08908); assay: cAMP formation in forskolin-treated cells (cAMP SPA assay); type: cell-based; details: value in brackets; forskolin 1 uM
T4 construct: expressed in transfected cells
T4 sequence (P08908 1-422): T1 sequence (P08908 1-422)
Protocol: as §1
The following assays were performed by incubating the cells with DMEM containing 25 mM HEPES, 5 mM theophylline and 10 µM pargyline for a period of 20 minutes at 37°C. Functional activity was assessed by treating the cells with forskolin (1 uM final concentration) followed immediately by test compound (6 concentrations) for an additional 10 minutes at 37°C. In separate experiments, 6 concentrations of antagonist were preincubated for 20 minutes prior to the addition of 10 nM 8-OH-DPAT and forskolin. The reaction was terminated by removal of the media and addition of 0.5 ml ice cold assay buffer. Plates were stored at -20°C prior to assessment of cAMP formation by a cAMP SPA assay (Amersham).

[5] = 3H-paroxetine 0.1 nM, rat frontal cortical membranes, read-out: ST (Kj, nM,)

T2 sequence (P31652 whole entry): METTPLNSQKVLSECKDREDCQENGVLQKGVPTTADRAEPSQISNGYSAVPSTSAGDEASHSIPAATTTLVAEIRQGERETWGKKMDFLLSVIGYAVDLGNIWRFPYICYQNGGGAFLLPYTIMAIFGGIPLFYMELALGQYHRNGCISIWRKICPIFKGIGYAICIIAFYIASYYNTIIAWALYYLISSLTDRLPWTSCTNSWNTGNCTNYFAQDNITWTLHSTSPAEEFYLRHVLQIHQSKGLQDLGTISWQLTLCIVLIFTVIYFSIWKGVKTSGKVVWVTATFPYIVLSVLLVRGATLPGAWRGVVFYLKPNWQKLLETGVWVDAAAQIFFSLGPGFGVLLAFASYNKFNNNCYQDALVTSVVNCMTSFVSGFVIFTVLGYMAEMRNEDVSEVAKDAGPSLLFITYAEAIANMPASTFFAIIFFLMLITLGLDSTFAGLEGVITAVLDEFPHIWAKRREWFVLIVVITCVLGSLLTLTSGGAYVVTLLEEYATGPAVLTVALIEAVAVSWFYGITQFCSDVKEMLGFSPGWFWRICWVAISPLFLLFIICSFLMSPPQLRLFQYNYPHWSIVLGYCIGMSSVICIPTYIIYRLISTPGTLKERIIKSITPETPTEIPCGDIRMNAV

Structure (SMILES) | Ki [1] | Ki [2, 5] | Emax [3] | Emax [4] | Ki [2]
Clc1ccc2[nH]cc([C@H]3CC[C@@H](N4CCN(c5cccc6[nH]ccc56)CC4)CC3)c2c1 [Example 6a, 5-Chloro-3-[cis-4-[4-(1H-indol-4-yl)-1-piperazinyl]cyclohexyl]-1H-indole] | 326 nM | 28 nM | 53% | 80% | 
Cn1ccc2c(N3CCN([C@H]4CC[C@@H](c5cn(C)c6cc(F)ccc65)CC4)CC3)cccc21 [Example 11, 6-Fluoro-1-methyl-3-{cis-4-[4-(1-methyl-1H-indol-4-yl)-1-piperazinyl]cyclohexyl}-1H-indole] |  | 40 nM |  |  | 
COc1ccccc1N1CCN([C@H]2CC[C@@H](c3c[nH]c4ccc(F)cc43)CC2)CC1 [Example 18, 5-Fluoro-3-{(cis)-4-[4-(2-methoxy-phenyl)-piperazin-1-yl] -cyclohexyl}-1H-indole] | 129 nM | 1.36 nM |  |  | 
COc1ccc(F)cc1N1CCN([C@H]2CC[C@@H](c3c[nH]c4ccc(F)cc43)CC2)CC1 [Example 22a, 5-Fluoro-3-{(cis)-4-[4-(5-fluoro-2-methoxy-phenyl)-piperazin-1-yl]-cyclohexyl}-1H-indole] | 80.7 nM | 4.96 nM | 0% | 0% | 
COc1ccc(F)cc1N1CCN([C@H]2CC[C@H](c3c[nH]c4ccc(F)cc43)CC2)CC1 [Example 22b, 5-Fluoro-3-{(trans)-4-[4-(5-fluoro-2-methoxy-phenyl)-piperazin-1-yl]-cyclohexyl}-1H-indole] | 11.6 nM | 36.5 nM | 4.5% | 0% | 
Fc1cc2c(c(N3CCN([C@H]4CC[C@@H](c5c[nH]c6ccc(F)cc65)CC4)CC3)c1)OCCC2 [Example 31a, 5-Fluoro-3-{(1,4-cis)-4-[4-(6-fluoro-chroman-8-yl)-piperazin-1-yl]-cyclohexyl}-1H-indole] | 142 nM |  |  |  | 13 nM
COc1ccccc1N1CCN(C2CC=C(c3c[nH]c4ccc(F)cc34)CC2)CC1 (stereo not drawn) [Example 35, 5-Fluoro-3-{4-[4-(2-methoxy-phenyl)-piperazin-1-yl]cyclohex-1-enyl}-1H-indole] | 70.1 nM | 91 nM |  |  | 
N#Cc1ccc2[nH]cc(C3=CCC(N4CCN(c5cccc6[nH]ccc56)CC4)CC3)c2c1 (stereo not drawn) [Example 36, 3-{4-[4-(1H-Indol-4-yl)-piperazin-1-yl]-cyclohex-1-enyl}-1H-indole-5-carbonitrile] | 12.3 nM | 28 nM | 53% | 80% | 
Cn1cc([C@H]2CC[C@@H](N3CCN(c4cccc5[nH]ccc45)CC3)CC2)c2cc(F)ccc21 [Example 38, 5-Fluoro-3-{cis-4-[4-(1H-indol-4-yl)-piperazinyl]-cyclohexyl}-1-methyl-1H-indole] |  |  |  |  | 7.22 nM
